Key:
[1] = system: Erysiphe graminis f.sp.tritici; experiment: Control test of wheat powdery mildew disease (sprayed young wheat seedlings); assay type: in vivo; conditions: Blumeria graminis, 144 h, 125 ppm by mass spray, six days after inoculation
Source text: [formula] […] Then, the drug liquid was sprayed onto young wheat seedlings cultivated in a nursery pot (variety “Chihoku”, one-to two-leaf stage), and then air-dried. Thereafter, conidiospores of fungi causing wheat powdery mildew disease (Erysiphe graminis f.sp.tritici) were sprinkled on the young wheat seedlings to inoculate them (treated area). As a control, the conidiospores of fungi causing wheat powdery mildew disease (Erysiphe graminis f.sp.tritici) were sprinkled on young wheat seedlings unsprayed with the drug liquid (untreated area). They were left still in a greenhouse at 20° C. Six days after inoculation, leaves of young wheat seedlings were visually observed, and the lesion area ratio was determined to calculate the control value in a similar manner to the previous test.

Colletotrichum acutatum = experiment: Fungicidal effect test against fungi causing apple anthracnose; conditions: 96 h, read-out: growth inhibition ratio
Botrytis cinerea [2] = assay type: cell-based; conditions: 120 h, 25 ppm by volume, Vogel medium, 20° C., five days, dark, read-out: growth inhibition ratio
Glomerella cingulata = experiment: Fungicidal effect test against fungi causing grape ripe rot disease; conditions: Colletotrichum gloeosporioides, 72 h, read-out: growth inhibition ratio
Botrytis cinerea [3] = experiment: Control test of cucumber gray mold (sprayed young cucumber seedlings); assay type: in vivo; conditions: 96 h, four days after inoculation; for pest or weed control at 125 ppm: 125 ppm by mass spray; for pest or weed control at 25 ppm: 25 ppm by mass spray
Method: Then, the drug liquid was sprayed onto young cucumber seedlings cultivated in a nursery pot (variety “Jihai”-based, cotyledon stage), and then air-dried. […] They were left still in a moist room at 20° C. Four days after inoculation, leaves of the young cucumber seedlings were visually observed, and the control value was calculated from the lesion area ratio in accordance with the following equation. [formula]

Cc1ccc(CN(NC(=O)c2cc(C)nnc2Oc2cccc(C3CC3)c2F)C(=O)C2COC2)c(C)c1 [b-40]
≥ 75%: pest or weed control at 125 ppm [1] | inhibition of growth at 25 ppm (Colletotrichum acutatum) | inhibition of growth at 25 ppm (Botrytis cinerea [2]) | inhibition of growth at 25 ppm (Glomerella cingulata)

CCc1ccc(Oc2nnc(C)cc2C(=O)NN(Cc2ccc(C)cc2C)C(=O)OC)cc1 [b-51]
≥ 75%: pest or weed control at 125 ppm [1] | inhibition of growth at 25 ppm (Colletotrichum acutatum) | inhibition of growth at 25 ppm (Botrytis cinerea [2]) | inhibition of growth at 25 ppm (Glomerella cingulata)

COC(=O)N(Cc1ccc(C)cc1C)NC(=S)c1cc(C)nnc1Oc1cccc(C2CC2)c1F [b-59, Methyl 2-(3-(3-cyclopropyl-2-fluorophenoxy)-6-methylpyridazine-4-carbonothioyl)-1-(2,4-dimethylbenzyl)hydrazine-1-carboxylate]
≥ 75%: pest or weed control at 125 ppm (Botrytis cinerea [3]) | inhibition of growth at 25 ppm (Colletotrichum acutatum) | inhibition of growth at 25 ppm (Botrytis cinerea [2]) | inhibition of growth at 25 ppm (Glomerella cingulata)

COC(=O)N(Cc1ccc(C)nc1C)NC(=O)c1cc(C)nnc1Oc1cccc(C2CC2)c1F [b-60]
≥ 75%: pest or weed control at 125 ppm [1] | inhibition of growth at 25 ppm (Colletotrichum acutatum) | inhibition of growth at 25 ppm (Glomerella cingulata)

COC(=O)N(Cc1ccc(C)cc1C)NC(=O)c1cc(C)nnc1Oc1ccc(C)c(Br)c1 [b-62]
≥ 75%: pest or weed control at 125 ppm [1] | inhibition of growth at 25 ppm (Colletotrichum acutatum) | inhibition of growth at 25 ppm (Botrytis cinerea [2]) | inhibition of growth at 25 ppm (Glomerella cingulata)

CC(=O)N(Cc1ccc(C)cc1C)NC(=O)c1nc(C)ncc1Oc1cccc(C2CC2)c1F [b-64]
≥ 75%: pest or weed control at 125 ppm (Botrytis cinerea [3]) | inhibition of growth at 25 ppm (Colletotrichum acutatum) | inhibition of growth at 25 ppm (Botrytis cinerea [2]) | inhibition of growth at 25 ppm (Glomerella cingulata)

COC(=O)N(Cc1ccc(C)cc1C)NC(=O)c1cc(C)nnc1Oc1cccc(C#N)c1F [b-69]
≥ 75%: pest or weed control at 125 ppm [1] | inhibition of growth at 25 ppm (Colletotrichum acutatum) | inhibition of growth at 25 ppm (Botrytis cinerea [2]) | inhibition of growth at 25 ppm (Glomerella cingulata)

COC(=O)N(NC(=O)c1cc(C)nnc1Oc1cccc(C2CC2)c1F)C(C)c1ccc(C)cc1C (stereo not drawn) [b-72]
≥ 75%: pest or weed control at 25 ppm (Botrytis cinerea [3]) | inhibition of growth at 25 ppm (Colletotrichum acutatum) | inhibition of growth at 25 ppm (Botrytis cinerea [2]) | inhibition of growth at 25 ppm (Glomerella cingulata)

COC(=O)N(Cc1ccc(OC)cc1C)NC(=O)c1nc(C)ncc1Oc1cccc(C2CC2)c1F [b-105]
≥ 75%: pest or weed control at 25 ppm (Botrytis cinerea [3]) | inhibition of growth at 25 ppm (Colletotrichum acutatum) | inhibition of growth at 25 ppm (Botrytis cinerea [2]) | inhibition of growth at 25 ppm (Glomerella cingulata)

COC(=O)N(Cc1ccc(C)cc1C)NC(=O)c1nc(C)nnc1Oc1cccc(C2CC2)c1F [b-115]
≥ 75%: pest or weed control at 25 ppm (Botrytis cinerea [3]) | inhibition of growth at 25 ppm (Colletotrichum acutatum) | inhibition of growth at 25 ppm (Botrytis cinerea [2]) | inhibition of growth at 25 ppm (Glomerella cingulata)

COC(=O)N(Cc1sc(C)cc1C)NC(=O)c1cc(C)nnc1Oc1cccc(C2CC2)c1F [b-122, Methyl 2-(3-(3-cyclopropyl-2-fluorophenoxy)-6-methylpyridazine-4-carbonyl)-1-((3,5-dimethylthiophen-2-yl)methyl)hydrazine-1-carboxylate]
≥ 75%: pest or weed control at 125 ppm (Botrytis cinerea [3]) | inhibition of growth at 25 ppm (Colletotrichum acutatum) | inhibition of growth at 25 ppm (Botrytis cinerea [2]) | inhibition of growth at 25 ppm (Glomerella cingulata)

COC(=O)N(Cc1ccc(OC)cc1C)NC(=O)c1nc(C)nnc1Oc1cccc(C2CC2)c1F [b-130]
≥ 75%: pest or weed control at 25 ppm (Botrytis cinerea [3]) | pest or weed control at 125 ppm (Botrytis cinerea [3]) | inhibition of growth at 25 ppm (Colletotrichum acutatum) | inhibition of growth at 25 ppm (Botrytis cinerea [2]) | inhibition of growth at 25 ppm (Glomerella cingulata)

Cc1ccc(CN(NC(=O)c2cc(C)nnc2Oc2cccc(C3CC3)c2F)C(=O)OCC(F)F)c(C)c1 [b-197]
≥ 75%: pest or weed control at 25 ppm (Botrytis cinerea [3]) | pest or weed control at 125 ppm (Botrytis cinerea [3]) | inhibition of growth at 25 ppm (Colletotrichum acutatum) | inhibition of growth at 25 ppm (Botrytis cinerea [2]) | inhibition of growth at 25 ppm (Glomerella cingulata)

COC(=O)N(Cc1ccc(C)cc1C)NC(=O)c1c(Oc2cccc(C3CC3)c2)cnn(C(C)C)c1=O [b-224]
≥ 75%: pest or weed control at 125 ppm (Botrytis cinerea [3]) | inhibition of growth at 25 ppm (Colletotrichum acutatum) | inhibition of growth at 25 ppm (Botrytis cinerea [2]) | inhibition of growth at 25 ppm (Glomerella cingulata)

Source: patent US20260198493A1, “HYDRAZIDE COMPOUND AND AGRICULTURAL/HORTICULTURAL FUNGICIDE” (Nippon Soda Co., Ltd., priority 2022, published 2026)
